From PMC4661406, “Uncovering the Mechanism of Aggregation of Human Transthyretin” (The Journal of Biological Chemistry, 2015)
Where a SMILES comes first, the peptide text is derived from it. [ ]: non-standard residue; d: D form. NMeE = CN[C@@H](CCC(=O)O)C(=O)O; NMeA = CN[C@@H](C)C(=O)O

Key:
monomeric variant MTTR = target: T1, monomeric variant MTTR (Homo sapiens, UniProt P02766, F107M/L130M); assay: Binding of inhibitors to MTTR (unbound fraction by HPLC-MS); details: apparent affinity for all MTTR species in solution (binding to aggregated species not excluded), 0.5 mg/ml MTTR with increasing combined R4PAm and R4PTm, 37 °C, 18 h, 10 mM sodium acetate pH 7.4, 100 mM KCl, 10 mM EDTA, one-site specific binding (GraphPad Prism 6), read-out: apparent binding constant (KD)
T1 construct: made in house; host or cells: Escherichia coli Rosetta(DE3) pLysS, pET24(+) vector
Experimental: The soluble unbound fraction of inhibitors after incubation with the monomeric variant MTTR ([40]) was quantified by HPLC-MS. Samples were made as follows. Soluble TTR at a fixed concentration of 0.5 mg/ml was incubated at 37 °C for 18 h in 10 mM sodium acetate (pH 7.4), 100 mM KCl, 10 mM EDTA with increasing quantities of combined R4PAm and R4PTm. The aggregated fraction was removed by 0.22-μm filtration. The protein fraction containing soluble TTR and inhibitor-bound complexes was then removed by acid precipitation with 1% acetic acid and consecutive ultracentrifugation at 90,000 rpm for 30 min. Neither 0.22-μm filtration nor acid precipitation affected the concentration of the unbound soluble fraction of the peptide inhibitors (data not shown). The unbound soluble fraction of inhibitors was subjected to size exclusion HPLC followed by mass spectrometry. […]
(§1) FIGURE 6. […] A, midpoint temperatures of the thermal unfolding transition (Tm) of wild-type TTR at different conditions were determined by differential scanning calorimetry. […] The unbound fraction of inhibitors was analyzed by HPLC-MS. […] TTR aggregation (TTR agg.) was measured by absorbance at 400 nm with the initial protein amount normalized to 100%. mAU, milli-absorbance units; N.A., not applicable. […]

WT TTR = assay: Differential scanning calorimetry of WT TTR with T4 and/or inhibitors; assay type: binding, human; details: versus WT TTR alone (no T4 before addition); 5:1 molar ratio to TTR monomer; 3.5 M guanidinium chloride, pH 4.3
Experimental: Data were taken with a DSC-II differential scanning calorimeter (Calorimetry Sciences Corp., Lindon, UT). The midpoint temperatures of the thermal unfolding transition (Tm) of wild type and mutants were determined. Thermal denaturation of TTR was irreversible under our conditions ([1], [38]), and absolute thermodynamic parameters were not determined. […] The experiments were performed in 3.5 M guanidinium hydrochloride to depress melting below 100 °C; this guanidinium concentration also solubilized thyroxine. Protein samples were thawed on ice and filtered, and the concentration was measured by UV-visible absorption. Protein samples were diluted to 1 mg/ml in 3.5 M guanidinium chloride, 100 mM sodium acetate (pH 4.3), 100 mM potassium chloride, 1 mM EDTA. A volume of 700 μl of each protein sample was prepared in a 1.5-ml microcentrifuge tube and degassed for 5 min under vacuum while stirring. The reference cell contained only buffer components. […]
as §1

[1] = test system: transthyretin amyloidosis; details: background statement, refs 16-18 cited in the next sentence; cited from earlier work
Text: Currently, there is no cure for transthyretin amyloidosis, and the treatment for familial cases of ATTR is liver transplantation. […] Several other therapeutics are currently in clinical trials, including other tetramer stabilizers such as diflunisal and RNAi therapies that cause a decrease in the production of TTR protein ([16][–][18]). Additional approaches are needed to prevent ATTR, and here we explore the use of peptide inhibitors that block aggregation of TTR.

[2] = Fibril formation of TTR peptides in isolation (TEM); assay type: physicochemical; details: PBS pH 7.4, 37 °C, no shaking; TEM after 7 days (methods: incubated 2 weeks); peptide concentration 0.5-17 mM
Experimental: Following dissolution, samples were filtered through a 0.2-μm filter and incubated at 37 °C with no shaking for 2 weeks.
TEM was performed to visualize the fibril formation of TTR proteins and peptides. 5 μl of the sample was spotted onto freshly glow-discharged, carbon-coated EM grids (Ted Pella, Redding, CA). After 3 min of incubation, grids were rinsed three times with 5 μl of distilled water and then stained with 2% uranyl acetate for 2 min. Grids were examined with a T12 Quick CryoEM and CryoET (FEI) transmission electron microscope at an accelerating voltage of 120 kV. Digital images were recorded using a Gatan 2,048 × 2,048 charge-coupled device camera.
FIGURE 2. β-Strand F as an aggregation-driving segment in TTR suitable for aggregation inhibitor design. […] Histograms show percentage of TTR aggregation using WT TTR to normalize to 100%. The aggregation was measured by absorbance of the samples at 400 nm after 4 days of incubation at 37 °C and pH 4.3 with no shaking. […]
FIGURE 3. β-Strand H as a second aggregation-driving segment suitable as a target for aggregation inhibitor design. A, residue solvent-accessible surface area (ASA; Å^2) of TTR was calculated by Areaimol using the structure of WT TTR in three different conformations: tetramer (blue), dimer (black), and monomer (green). […]

Kd (monomeric variant MTTR) | Molecule | fibril formation in isolation [2] | further results
17.9 ± 6.1 µM | CC(C)[C@H](NC(=O)[C@@H](NC(=O)[C@H](CCC(=O)O)N(C)C(=O)[C@H](C)NC(=O)[C@H](Cc1c[nH]cn1)NC(=O)[C@H](CCC(=O)O)NC(=O)[C@H](Cc1c[nH]cn1)NC(=O)[C@H](Cc1ccccc1)NC(=O)[C@@H]1CCCN1C(=O)[C@H](CCCNC(=N)N)NC(=O)[C@H](CCCNC(=N)N)NC(=O)[C@H](CCCNC(=N)N)NC(=O)[C@@H](N)CCCNC(=N)N)C(C)C)C(=O)N[C@@H](Cc1ccccc1)C(=O)N[C@H](C(=O)N[C@@H](C)C(=O)O)[C@@H](C)O [R4PAm] (H-RRRRPFHEHA[NMeE]VVFTA-OH) | – | –
19.3 ± 6.7 µM | CC(C)[C@H](NC(=O)[C@@H](NC(=O)[C@H](C)N(C)C(=O)[C@@H](NC(=O)[C@@H](NC(=O)[C@H](CO)NC(=O)[C@H](Cc1ccc(O)cc1)NC(=O)[C@H](CO)NC(=O)[C@H](Cc1ccc(O)cc1)NC(=O)[C@@H]1CCCN1C(=O)[C@H](CCCNC(=N)N)NC(=O)[C@H](CCCNC(=N)N)NC(=O)[C@H](CCCNC(=N)N)NC(=O)[C@@H](N)CCCNC(=N)N)[C@@H](C)O)[C@@H](C)O)C(C)C)C(=O)N[C@H](C(=O)N[C@@H](CC(N)=O)C(=O)O)[C@@H](C)O [R4PTm] (H-RRRRPYSYSTT[NMeA]VVTN-OH) | – | –
– | NC(Cc1cc(I)c(Oc2cc(I)c(O)c(I)c2)c(I)c1)C(=O)O (stereo not drawn) [T4, thyroxine] | – | increase in Tm of WT TTR on addition (WT TTR): 10.8 °C
– | O=C(O)c1ccc2nc(-c3cc(Cl)cc(Cl)c3)oc2c1 [Tafamidis] | – | disease progression [1]: delays progression of the disease
– | AEVVFT [6-residue TTR segment 91-96 from strand F] | form fibrils in solution by self-aggregation | –
– | TAVVTN [6-residue TTR segment 119-124 from strand H] | form fibrils in solution by self-aggregation | –
